Test results: patent US6281214A, “Biphenyl derivatives” (Eisai Co., Ltd, priority 1994, dated 2001)
Structures can show the parent of a compound that is named as a salt. Where two headings read alike, the source gives them in different places.

Tests used:
Design in all cases: species or system SD rats
dopamine D2 receptor = target: T1, dopamine D2 receptor (Rattus norvegicus, UniProt P61169); experiment: dopamine D2 receptor binding test ([3H] Spiperone Binding Test); conditions: 1 nM [3H] Spiperone, rat corpus striatum, room temperature, 60 minutes
T1 construct: the receptor fraction prepared from the corpus striatum was molten and suspended; from tissue; host or cells: corpus striatum of SD rats (membrane fraction)
Experimental: (§1) The compounds of the present invention were subjected to each of serotonin S2 receptor binding test, dopamine D2 receptor binding test and adrenergic α1 receptor binding test.
(§2) The following reagents were used in this test.
(§3) These reagents and samples were each dissolved in 10% ethanol before use. Among them, water-insoluble compounds were each dissolved in ethanol and the obtained solution was diluted with distilled water to an ethanol concentration of 10%. Further, Methylsergide maleate was used in a state dissolved in distilled water.
(§4) SD rats aged 6 to 8 weeks were used.
(§5) SD rats were each slaughtered with a guillotine to extirpate its cerebrum. The cortex and corpus striatum were separated from the cerebrum. The former was used in serotonin S2 receptor binding test and adrenergic α1, receptor binding test, while the latter was used in dopamine D2 receptor binding test.
On the other hand, the corpus striatum was homogenized in a 0.32 M sucrose solution in an amount ten times the wet weight of the corpus striatum by the use of a teflon glass homogenizer and the obtained mixture was centrifuged at 1,000×G for 20 minutes. The obtained supernatant was centrifuged at 10,000×G for 20 minutes. The obtained sediments were suspended together in 50 mM Tris hydrochloride (pH 7.4) in an amount ten times the initial wet weight of the corpus striatum by the use of a histocothrom, and the obtained suspension was centrifuged at 10,000×G for 20 minutes. This operation was repeated thrice. The resulting sediment was suspended in 50 mM Krebs-Tris (pH 7.4) in an amount 100 times the initial wet weight of the corpus striatum by the use of a histocothrom. The obtained suspension was used as a receptor fraction. This receptor fraction was stored at -80° C. until use.
(§6) Each IC50 value was calculated by the probit method and each Ki value was determined by the following formula: [formula]
(§7) In the above formula, C represents the concentration of radioligand, and Kd represents the affinity of radioligand for the receptor as determined by the Scatchard analysis.
5. [^3 H] Spiperone Binding Test
(§8) This test was conducted in the same manner as that of the binding test of [^3 H] Ketanserin except that the receptor fraction prepared from the corpus striatum was molten and suspended with a histocothrom, and the obtained suspension was incubated together with 1 nM-[^3 H], Spiperone at room temperature for 60 minutes and that the binding detected in the presence of 10 μl of Spiperone was regarded as nonspecific binding.

serotonin S2 receptor = target: T2, serotonin S2 receptor (Rattus norvegicus, UniProt P14842); experiment: serotonin S2 receptor binding test ([3H] Ketanserin Binding Test); conditions: 1 nM [3H] Ketanserin, rat cortex, 37° C., 15 minutes
T2 construct: The receptor fraction prepared from the cortex was molten and suspended; from tissue; host or cells: cerebral cortex of SD rats (membrane fraction)
Experimental: as §1, §2, §3, §4, §5
(§9) The cortex was homogenized in a 0.32 M sucrose solution in an amount ten times the wet weight of the cortex by the use of a teflon glass homogenizer and the resulting mixture was centrifuged at 10,000×G for 20 minutes. The obtained sediment was suspended in 50 mM Tris hydrochloride (pH 7.4) in an amount ten times the initial wet weight of the cortex by the use of a histocothrom, and the obtained suspension was centrifuged at 10,000×G for 20 minutes. This operation was repeated twice. The obtained sediment was suspended in 50 mM Tris hydrochloride (pH 7.4) in an amount 20 times the initial wet weight of the cortex by the use of a histocothrom. The suspension thus prepared was used as a receptor fraction. This receptor fraction was stored at -80° C. until use.
4. [^3 ] Ketanserin Binding Test
The receptor fraction prepared from the cortex was molten and suspended by the use of a histocothrom. The resulting suspension was incubated together with 1 nM-[^3 H] Ketanserin at 37° C. for 15 minutes. The resulting reaction system was filtered through a Whatman GF/B glass filter with an MR-30R type cell harvester mfd. by Blandel. The resulting filter was washed twice with 5 ml of 50 mM Tris hydrochloride (ph 7.4) cooled with ice and the radioactivity of the Ketanserin bound the receptor was determined by the use of a liquid scintillation counter with 5 ml of ACS II. The binding detected in the presence of […] of Methylsergide was regarded as nonspecific binding.
as §6, §7

adrenergic α1 receptor = adrenergic α1 receptor binding test ([3H] Prazosin Binding Test); conditions: 1 nM [3H] Prazosin, rat cortex, room temperature, 60 minutes
Experimental: as §1, §2, §3, §4, §5, §9, §6, §7
6. [^3 H] Prazosin Binding Test
as §8, with “cortex” for “corpus striatum”, “H] Prazosin” for “H], Spiperone”, “Phentolamine” for “Spiperone”

[1] = read-out: Ki value, dopamine D2 receptor

T1 sequence (P61169 whole entry): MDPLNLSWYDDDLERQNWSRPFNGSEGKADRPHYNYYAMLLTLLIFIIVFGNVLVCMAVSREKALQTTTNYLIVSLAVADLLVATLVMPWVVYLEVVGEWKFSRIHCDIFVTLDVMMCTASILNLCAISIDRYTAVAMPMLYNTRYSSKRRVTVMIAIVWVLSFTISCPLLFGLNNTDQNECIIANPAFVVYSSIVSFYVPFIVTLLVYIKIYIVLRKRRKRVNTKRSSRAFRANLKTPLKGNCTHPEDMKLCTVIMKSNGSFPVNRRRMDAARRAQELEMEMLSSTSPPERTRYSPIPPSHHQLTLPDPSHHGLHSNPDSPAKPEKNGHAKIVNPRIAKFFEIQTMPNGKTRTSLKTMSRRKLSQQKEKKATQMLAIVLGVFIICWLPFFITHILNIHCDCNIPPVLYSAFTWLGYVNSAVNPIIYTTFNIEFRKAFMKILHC
T2 sequence (P14842 whole entry): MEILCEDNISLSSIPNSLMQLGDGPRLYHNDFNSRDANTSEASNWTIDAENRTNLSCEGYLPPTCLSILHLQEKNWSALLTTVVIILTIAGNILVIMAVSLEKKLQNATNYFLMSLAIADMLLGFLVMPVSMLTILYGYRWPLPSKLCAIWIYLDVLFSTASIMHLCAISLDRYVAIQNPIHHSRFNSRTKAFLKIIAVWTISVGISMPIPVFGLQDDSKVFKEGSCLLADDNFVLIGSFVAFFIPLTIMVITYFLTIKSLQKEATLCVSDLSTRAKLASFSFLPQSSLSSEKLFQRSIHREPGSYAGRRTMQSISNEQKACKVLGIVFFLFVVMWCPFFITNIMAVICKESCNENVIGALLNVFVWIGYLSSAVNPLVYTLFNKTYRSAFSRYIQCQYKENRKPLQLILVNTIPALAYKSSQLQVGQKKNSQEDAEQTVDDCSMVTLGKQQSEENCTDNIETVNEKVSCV

Row | Structure (SMILES) | Ki (dopamine D2 receptor; [1]) [nM] | Ki (serotonin S2 receptor) [nM] | Ki (adrenergic α1 receptor) [nM] | Ki (adrenergic α1 receptor; hydrochloride) [nM] | Ki (dopamine D2 receptor; Ki value, dopamine D2 receptor) [nM]
1 | CCC(F)c1cc(N2CCN(CCO)CC2)cc(-c2ccccc2C#N)c1Cl (single isomer, unassigned) [Example 13, 1-(2-hydroxyethyl)-4-[3-(2-cyanophenyl)-4-chloro-5-(fluoropropyl)]phenylpiperazine] | 4.05 | 24.9 | 404 |  | 
2 | CCCS(=O)(=O)Nc1cc(N2CCN(CC)CC2)cc(-c2ccccc2C)c1Cl [Example 17, 1-ethyl-4-[3-(2-tolyl)-4-chloro-5-propanesulfonylamino]phenylpiperazine hydrochloride] | > 100 | 374 |  | 550 | 
3 | CCN1CCN(c2cc(NS(=O)(=O)CC)c(Cl)c(-c3ccccc3C)c2)CC1 [Example 18, 1-Ethyl-4-[3-(2-tolyl)-4-chloro-5-ethanesulfonylamino]phenylpiperazine] | 0.75 | 6.15 | 53.7 |  | 
4 | CCCCS(=O)(=O)Nc1cc(N2CCN(CC)CC2)cc(-c2ccccc2C)c1Cl [Example 19, 1-Ethyl-4-[3-(2-tolyl)-4-chloro-5-butanesulfonylamino]phenylpiperazine] | 0.64 | 1.95 | 81.6 |  | 
5 | CCC(F)c1cc(N2CCN(C)CC2)cc(-c2ccccc2C#N)c1Cl (centres unmarked) [Example 20, 1-Methyl-4-[3-(2-cyanophenyl)-4-chloro-5-(1-fluoropropyl)]phenylpiperazine] | 2.82 | 6.11 | 314 |  | 
6 | CCC(F)c1cc(N2CCN(CC)CC2)cc(-c2ccccc2C#N)c1Cl (centres unmarked) [Example 21] | 1.85 | 14.4 | 418 |  | 
7 | CCC(F)c1cc(N2CCN(C)CC2)cc(-c2ccccc2Cl)c1Cl (centres unmarked) [Example 22, 1-Methyl-4-[3-(2-chlorophenyl)-4-chloro-5-(1-fluoropropyl)]phenylpiperazine] | 2.84 | 19.2 | 809 |  | 
8 | CCC(F)c1cc(N2CCN(CCO)CC2)cc(-c2ccccc2Cl)c1Cl (centres unmarked) [Example 23, 1-(2-Hydroxyethyl)-4-[3-(2-chlorophenyl)-4-chloro-5-(1-fluoropropyl)]phenylpiperazine] | 7.22 | 51.2 |  |  | 
9 | CCC(F)c1cc(N2CCN(CC)CC2)cc(-c2ccccc2Cl)c1Cl (centres unmarked) [Example 24, 1-Ethyl-4-[3-(2-chlorophonyl)-4-chloro-5-(1-fluoropropyl)]phenylpiperazine] | 3.6 | 40.9 | 537 |  | 
10 | CCC(F)c1cc(N2CCN(C)CC2)cc(-c2ccccc2C)c1Cl (centres unmarked) [Example 25, 1-Methyl-4-[3-(2-tolyl)-4-chloro-5-(1-fluoropropyl)]phenylpiperazine] | 2.4 | 8.27 | > 1000 |  | 
11 | CCC(F)c1cc(N2CCN(CCO)CC2)cc(-c2ccccc2C)c1Cl (centres unmarked) [Example 26, 1-(2-Hydroxyethyl)-4-[3-(2-tolyl)-4-chloro-5-(1-fluloropropyl)]phenylpiperazine] | 2.67 | 21.6 | > 1000 |  | 
12 | CCC(F)c1cc(N2CCN(CC)CC2)cc(-c2ccccc2C)c1Cl (centres unmarked) [Example 27, 1-Ethyl-4-[3-(2-tolyl)-4-chloro-5-(1-fluloropropyl)]phenylpiperazine] | 11.2 | 10.9 | 455 |  | 
13 | CCS(=O)(=O)Nc1cc(N2CCN(C)CC2)cc(-c2ccccc2C)c1Cl [Example 28, 1-Methyl-4-[3-(2-tolyl)-4-chloro-5-ethanesulfonylamino]phenylpiperazine] | 1.6 | 5.67 | 50.8 |  | 
14 | CCN1CCN(c2cc(NS(=O)(=O)c3ccccc3)c(OC)c(-c3ccccc3)c2)CC1 [Example 120] | 0.36 | 17.4 |  |  | 
15 | CCS(=O)(=O)c1cc(N2CCN(Cc3ccccn3)CC2)cc(-c2ccc(F)cc2)c1OC [Example 199, 1-(2-Pyridylmethyl)-4-[3-(4-fluorophenyl)-4-methoxy-5-ethanesulfonyl]phenylpiperazine] | 51.5 | 63.2 |  |  | 
16 | CCS(=O)(=O)c1cc(N2CCNCC2)cc(-c2ccc(F)cc2)c1OC [Example 202, 1-[3-(4-Fluorophenyl)-4-methoxy-5-ethanesulfonyl]phenylpiperazine] |  | 6.33 |  |  | 90.5
17 | CCS(=O)(=O)c1cc(N2CCN(CCF)CC2)cc(-c2ccc(F)cc2)c1OC [Example 203, 1-(2-Fluoroethyl)-4-[3-(4-fluorophenyl)-4-methoxy-5-ethanesulfonyl]phenylpiperazine] |  | 54.8 |  |  | 
18 | C/C=C/c1cc(N2CCN(CC)CC2)cc(-c2ccccc2Cl)c1Cl [Example 204] | 14.4 | 187 |  |  | 
19 | CCC(Cl)c1cc(N2CCN(CC)CC2)cc(-c2ccccc2Cl)c1Cl (centres unmarked) [Example 205, 1-Ethyl-4-[3-(2-chlorophenyl)-4-chloro-5-(1-chlorophenyl0phenylpiperazine)]phenylpiperazine] | 2.83 | 51.2 |  |  | 
20 | CC[C@@H](F)c1cc(N2CCN(C)CC2)cc(-c2ccccc2CF)c1Cl [Example 209] | 3.9 | 42.7 |  |  | 
21 | CC[C@H](F)c1cc(N2CCN(C)CC2)cc(-c2ccccc2CF)c1Cl [Example 210, 1-Methyl-4-{3-(2-fluoromethylphenyl)-4-chloro-5-[1-(S)-fluoropropyl]}phenylpiperazine] | 16.1 | 6.25 |  |  | 
22 | CC[C@@H](F)c1cc(N2CCN(CC)CC2)cc(-c2ccc(F)cc2C)c1Cl [Example 212, 1-Ethyl-4-{3-[2-(4-fluorotolyl)]-4-chloro-5-[1-(R)-fluorophenyl]}phenylpiperazine] | 3.9 | 1020 |  |  | 
23 | CCC(F)c1cc(N2CCN(CC)CC2)cc(-c2c(C)cccc2C)c1Cl (centres unmarked) [Example 215, 1-Ethyl-4-[3-(2,6-xylyl)-4-chloro-5-(1-fluoropropyl)]phenylpiperazine] | 2.28 | 15.3 |  |  | 
24 | CC[C@@H](F)c1cc(N2CCN(CC)CC2)cc(-c2ccccc2C(F)(F)F)c1Cl [Example 216, 1-Ethyl-4-{3-(2-trifluoromethylphenyl)-4-chloro-5-[1-(R)-fluoropropyl]}phenylpiperazine] | 11.3 | 79 |  |  | 
25 | CCc1ccccc1-c1cc(N2CCN(CC)CC2)cc(C(F)CC)c1Cl (centres unmarked) [Example 217, 1-Ethyl-4-[3-(2-ethylphenyl)-4-chloro-5-(1-fluoropropyl)]phenylpiperazine] | 3.57 | 25.5 |  |  | 
26 | CCc1ccccc1-c1cc(N2CCN(CCO)CC2)cc(C(F)CC)c1Cl (centres unmarked) [Example 218, 1-(2-Hydroxyethyl)-4-[3-(2-ethylphenyl)-4-chloro-5-(1-fluoropropyl)]phenylpiperazine] | 5.39 | 30.1 |  |  | 
27 | CC[C@@H](F)c1cc(N2CCN(CCO)CC2)cc(-c2ccccc2C(F)(F)F)c1Cl [Example 219, 1-(2-Hydroxyethyl)-4-{3-(2-trifluoromethylphenyl)-4-chloro-5-[1-(R)-fluoropropyl]}phenylpiperazine] | 5.54 | 151 |  |  | 
